In ChEMBL document CHEMBL3244413, “A phenazine analogue of actinomycin D” (1979):
*1 amine or outer side, *2 acyl side, *3 side chain or, on linkers, in order; H or OH if unused. Where a SMILES comes first, the peptide text is derived from it. Bridges are numbered along the chain shown (N, C = ends). Roman numbers before positions name the chains, in order. [ ]: non-standard residue; d: D form. Actinocin(1to9) = Cc1c2oc3c(C)ccc(C(=O)[*:2])c3nc-2c(C(=O)[*:1])c(N)c1=O; NMeV = CN[C@H](C(=O)O)C(C)C; Sar = CNCC(=O)O

Key:
L1210 [1] = experiment: Inhibition of DNA synthesis in mouse L1210 cells by [3H]-thymidine incorporation assay; assay type: functional; settings: read-out: ED50 (the source's name)
Calf thymus DNA = experiment: Binding affinity to calf thymus DNA at 5.2 x 10^-6 M by CD spectra analysis; assay type: nucleic-acid assay; settings: Bos taurus
L1210 [2] = experiment: Inhibition of RNA synthesis in mouse L1210 cells by [3H]-uridine incorporation assay; assay type: functional; settings: read-out: ED50 (the source's name)

| EC50 (L1210 [1]) [nM] | ΔTm (Calf thymus DNA) [°C] | EC50 (L1210 [2]) [nM] | Compound |
| --- | --- | --- | --- |
| 600 | 7.1 | 15 | Cc1c2oc3c(C)ccc(C(=O)N[C@@H]4C(=O)N[C@H](C(C)C)C(=O)N5CCC[C@H]5C(=O)N(C)CC(=O)N(C)[C@@H](C(C)C)C(=O)O[C@@H]4C)c3nc-2c(C(=O)N[C@@H]2C(=O)N[C@H](C(C)C)C(=O)N3CCC[C@H]3C(=O)N(C)CC(=O)N(C)[C@@H](C(C)C)C(=O)O[C@@H]2C)c(N)c1=O [DACTINOMYCIN] (I: T[dV]P[Sar][NMeV] / II: T[dV]P[Sar][NMeV]; ester I:1-I:C, II:1-II:C; linker I:N-II:N via Actinocin(1to9)) |
| 63000 | 9.9 | 700 | Cc1c2oc3c(C)ccc(C(=O)N[C@@H]4C(=O)N[C@H](C(C)C)C(=O)N5CCC[C@H]5C(=O)N(C)CC(=O)N(C)[C@@H](C(C)C)C(=O)O[C@@H]4C)c3nc-2c(C(=O)N[C@@H]2C(=O)N[C@H](C(C)C)C(=O)N3CCC[C@H]3C(=O)N(C)CC(=O)N(C)[C@@H](C(C)C)C(=O)O[C@@H]2C)cc1=O |
| 9200 | 3.4 | 230 | Cc1ccc(C(=O)N[C@@H]2C(=O)N[C@H](C(C)C)C(=O)N3CCC[C@H]3C(=O)N(C)CC(=O)N(C)[C@@H](C(C)C)C(=O)O[C@@H]2C)c2nc3c(C(=O)N[C@@H]4C(=O)N[C@H](C(C)C)C(=O)N5CCC[C@H]5C(=O)N(C)CC(=O)N(C)[C@@H](C(C)C)C(=O)O[C@@H]4C)cccc3nc12 |
